US7951834B2, “Angiotensin I-converting enzyme (ACE) inhibitors” (University of Cape Town, priority 2005, dated 2011)

What was measured:
[1] = target: tACEdelta36NJ (tACE, C domain) (Homo sapiens, UniProt P12821); experiment: ACE inhibitory activity, fluorometric determination of phthaldialdehyde-derivatised His-Leu, tACE; type: biochemical; conditions: for inhibitory activity for ACE as compared to lisinopril: in words; for Ki: substrate ZPHL, enzyme + inhibitor incubated 3 hours at ambient temperature
Chain of tACEdelta36NJ (tACE, C domain) (P12821 642-1230 limits assumed): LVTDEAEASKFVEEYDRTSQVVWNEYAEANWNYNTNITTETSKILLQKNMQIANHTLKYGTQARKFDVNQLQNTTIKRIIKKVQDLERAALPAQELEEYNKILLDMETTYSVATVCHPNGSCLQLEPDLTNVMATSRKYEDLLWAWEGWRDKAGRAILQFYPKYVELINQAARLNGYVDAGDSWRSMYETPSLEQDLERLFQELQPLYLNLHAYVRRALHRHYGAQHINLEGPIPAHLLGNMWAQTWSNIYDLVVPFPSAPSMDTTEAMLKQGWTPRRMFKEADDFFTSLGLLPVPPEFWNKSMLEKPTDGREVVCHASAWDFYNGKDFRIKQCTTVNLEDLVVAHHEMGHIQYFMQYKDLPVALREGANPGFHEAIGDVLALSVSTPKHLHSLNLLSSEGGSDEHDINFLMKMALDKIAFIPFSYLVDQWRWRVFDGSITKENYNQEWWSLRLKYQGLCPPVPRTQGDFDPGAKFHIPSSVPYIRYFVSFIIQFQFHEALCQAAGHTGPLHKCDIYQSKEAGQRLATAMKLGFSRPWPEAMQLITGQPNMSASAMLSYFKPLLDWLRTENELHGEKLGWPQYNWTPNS
Method: (§1) The ACE inhibitory activity (as tabulated in Table 1) was measured by the fluorometric determination of phthaldialdehyde-derivatised histidylleucine, a product of the enzyme reaction according to the method of Almquist et al.,^12 with some modifications. For tACEdelta36NJ and N-domain inhibition using Z-Phe-His-Leu as substrate:—10 μL of 0.05 mg/mL enzyme+120 μL inhibitor was incubated at ambient temperature for 3 hours. Inhibitor concentrations ranged from 2.0 μM to 500 μM. A 3.0 μL aliquot of this was assayed for enzyme activity using 30 μL of 1.0 mM […]. This was incubated (in triplicate) for 30 mins at 37° C. and stopped with 180 μL solution of 0.28N NaOH. To this alkalized mixture 12 μL of o-phthaldialdehyde (150 mM) was added and the mixture incubated for another 10 mins at room temperature. Reactions were stopped by adding 26 μL of 3N HCl. Fluorescence was measured at Ex=360 nm; Em=486 nm, 5×5 slit width along with a His-Leu standard calibration curve fluorometer: Varian Cary Eclipse plate reader.
(§2) All assays included enzyme incubated with buffer in the absence of inhibitor (i.e. 0 μM inhibitor concentration).

ACE N-domain = ACE N-domain (Homo sapiens, UniProt P12821); experiment: ACE inhibitory activity, fluorometric determination of phthaldialdehyde-derivatised His-Leu, N-domain; type: biochemical; conditions: substrate ZPHL; enzyme + inhibitor incubated 3 hours at ambient temperature; read-out: Ki (N-dom) ZPHL
Chain of ACE N-domain (P12821 40-624 limits assumed): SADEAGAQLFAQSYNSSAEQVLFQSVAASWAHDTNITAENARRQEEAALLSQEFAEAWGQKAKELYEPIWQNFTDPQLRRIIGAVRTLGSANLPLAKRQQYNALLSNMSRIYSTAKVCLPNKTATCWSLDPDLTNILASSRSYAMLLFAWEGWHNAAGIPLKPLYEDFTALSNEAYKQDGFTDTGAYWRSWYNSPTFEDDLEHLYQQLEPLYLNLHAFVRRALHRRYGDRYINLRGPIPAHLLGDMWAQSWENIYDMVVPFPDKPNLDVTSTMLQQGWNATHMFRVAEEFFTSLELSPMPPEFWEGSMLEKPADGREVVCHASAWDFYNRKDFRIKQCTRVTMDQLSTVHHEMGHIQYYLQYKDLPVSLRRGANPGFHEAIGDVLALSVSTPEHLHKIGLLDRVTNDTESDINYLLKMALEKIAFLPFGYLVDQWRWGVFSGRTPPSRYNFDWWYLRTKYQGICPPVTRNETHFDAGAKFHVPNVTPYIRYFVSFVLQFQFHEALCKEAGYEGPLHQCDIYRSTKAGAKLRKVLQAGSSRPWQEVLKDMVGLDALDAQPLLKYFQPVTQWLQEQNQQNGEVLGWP
Method: as §1, §2

inhibitory activity for ACE as compared to lisinopril [1]	Ki (ACE N-domain) [µM]	Ki [1] [µM]	C-domain specific (fold) ([1]; tACE (C domain) versus N-domain)	melting point [°C]	Structure (SMILES)	domain selectivity (in words) ([1]; N-domain versus tACE (C domain))
weak inhibitory activity	196	0.8	245	171 to 173	O=C(CCC(=O)[C@H](Cc1ccccc1)NC(=O)c1ccccc1)N[C@@H](Cc1c[nH]c2ccccc12)C(=O)O [Compound 5b, (5S)-5-[(N-benzoyl)amino]-4-oxo-6-phenyl-hexanoyl-L-tryptophan]	
weak inhibitory activity	84.3	23.7			O=C(CCC(=O)[C@H](Cc1ccccc1)NC(=O)c1ccccc1)N[C@@H](Cc1ccccc1)C(=O)O [Compound 5c, (5S)-5-[(N-benzoyl)amino]-4-oxo-6-phenyl-hexanoyl-L-phenylalanine]	
weak inhibitory activity	33.6	144			CC(C)(C)OC(=O)N[C@@H](Cc1ccccc1)C(=O)CCC(=O)N1CCC[C@H]1C(=O)O [Compound 11a, (5S)-6-phenyl-5-[(tert-butyloxycarbonyl)-amino]-4-oxo-hexanoyl-L-proline]	inhibits N-domain more effectively than tACE
				141 to 143	CC(C)(C)OC(=O)N[C@@H](Cc1ccccc1)C(=O)CCC(=O)N[C@@H](Cc1c[nH]c2ccccc12)C(=O)O [Compound 11b, (5S)-6-phenyl-5-[(tert-butyloxycarbonyl)-amino]-4-oxo-hexanoyl-L-tryptophan]	

Structure (SMILES)	inhibitory activity for ACE as compared to lisinopril [1]	Ki (ACE N-domain) [µM]	Ki [1] [µM]	C-domain specific (fold) ([1]; tACE (C domain) versus N-domain)	melting point [°C]	domain selectivity (in words) ([1]; N-domain versus tACE (C domain))
O=C(N[C@@H](Cc1ccccc1)C(=O)CCC(=O)N1CCC[C@H]1C(=O)O)c1ccccc1 [Compound 5a, (5S)-5-[(N-benzoyl)amino]-4-oxo-6-phenyl-hexanoyl-L-proline]	weak inhibitory activity					
